Measurements from patent US8865750B2, “Small molecule inhibitors of RGS proteins” (The Regents of The University of Michigan, priority 2011, dated 2014).
Like-named read-outs stand apart in the source and are kept apart here.

Key:
[1] = tested on: RGS4; test: FCPIA: Gαo binding to RGS4; conditions: for RGS4 Hill Slope: Table 3; for IC50: read-out: RGS4 IC50
Text: (§1) FCPIA Dose Response and Reversibility Experiments:

[2] = molecular target: RGS8 (Homo sapiens (Human), UniProt P57771); test: FCPIA: Gαo binding to RGS8; conditions: for RGS8 Hill Slope: Table 3; for IC50: read-out: RGS8 IC50
Text: as §1

[3] = tested on: HEK293 cells; test: Calcium mobilization induced by compound alone; format: cell-based; conditions: for Emax at 10 µM: Homo sapiens, HEK293, read-out: Calcium transient (% 50014); for induction of calcium transient by compound alone: 10 μM, HEK293 cells;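 on Calcium transient (% 50014): percent of response to 10 µM reference CCG-50014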
Protocol: Calcium Mobilization Experiments:
A stable cell line was developed based upon the HEK-293 Flp-In TREx cell line (Invitrogen, Carlsbad, Calif.) that stably express the muscarinic M3 receptor and have human RGS4 expression under doxycycline control. Cells were maintained in DMEM supplemented with 10% fetal bovine serum and Penicillin (100 units/ml)-Streptomycin (100 μg/ml) under 5% CO2 at 37° C. For experiments, cells were split into 96-well black, clear bottom, poly-D-lysine coated microtiter plates (Nunc, Cat. #152037) at a density of 20,000 cells/well in DMEM containing 10% fetal bovine serum and Penicillin (100 units/ml), Streptomycin (100 μg/ml). RGS4 expression was induced by supplementing the medium with 1 μg/mL doxycycline for 24-48 hours before experimentation. Cells were loaded with Fluo-4 No Wash dye in buffer for 30 minutes at 37° C. Compounds and/or carbachol were added to the wells and the fluorescence intensity was measured using a FlexStation (Molecular Devices, Sunnyvale, Calif.) plate reader. Data analysis was performed by calculating the area under the curve or maximal fluorescence intensity from a 120 second kinetic measurement.

[4] = Table 3, duplex FCPIA, average of two experiments

Sequence of RGS8 (P57771 other isoform, or with tags, fused parts or gaps): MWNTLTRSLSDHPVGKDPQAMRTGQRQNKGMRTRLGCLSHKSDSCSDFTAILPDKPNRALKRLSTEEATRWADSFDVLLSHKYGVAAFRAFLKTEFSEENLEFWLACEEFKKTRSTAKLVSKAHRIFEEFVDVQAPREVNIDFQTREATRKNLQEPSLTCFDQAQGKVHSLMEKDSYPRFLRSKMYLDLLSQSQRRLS

RGS4 Hill Slope [1] | IC50 ([1]; Table 6, FCPIA) [µM] | RGS8 Hill Slope [2] | IC50 [2, 4] [µM] | IC50 [1, 4] [µM] | IC50 ([2]; Table 6, FCPIA) [µM] | Compound | Emax at 10 µM [3] [%] | induction of calcium transient by compound alone [3]
−1.01 | 0.0235 | −1.10 | 28.4 | – | – | CCCCn1sc(=O)n(C)c1=O [CCG-203757, 2-butyl-4-methyl-1,2,4-thiadiazolidine-3,5-dione] | 138 | –
−1.56 | – | −1.06 | – | 0.019 | 8.4 | Cc1ccc(-n2sc(=O)n(C)c2=O)cc1 [CCG-203759, 2-p-tolyl-4-methyl-1,2,4-thiadiazolidine-3,5-dione] | 238 | –
−0.99 | – | −0.89 | – | 0.028 | 56 | Cn1c(=O)sn(C(C)(C)C)c1=O [CCG-203760, 2-t-butyl-4-methyl-1,2,4-thiadiazolidine-3,5-dione] | 47.2 | no ability to induce calcium mobilization
−1.47 | 0.014 | −0.92 | – | – | 7.7 | Cc1ccc(-n2sc(=O)n(CC(C)C)c2=O)cc1 [CCG-203761, 2-p-tolyl-4-isobutyl-1,2,4-thiadiazolidine-3,5-dione] | 98.9 | –
−0.87 | – | −0.78 | – | 0.026 | 70.6 | CCn1sc(=O)n(CC(C)C)c1=O [CCG-203762, 2-ethyl-4-isobutyl-1,2,4-thiadiazolidine-3,5-dione] | 38.3 | no ability to induce calcium mobilization
−0.85 | – | −0.52 | 194 | 0.029 | – | CC(C)Cn1c(=O)sn(C(C)(C)C)c1=O [CCG-203763, 2-t-butyl-4-isobutyl-1,2,4-thiadiazolidine-3,5-dione] | 73.5 | –
−0.81 | – | −0.59 | 31.6 | 0.016 | – | CCCCn1sc(=O)n(Cc2ccc(F)cc2)c1=O [CCG-203765, 2-butyl-4-(4-fluorobenzyl)-1,2,4-thiadiazolidine-3,5-dione] | 184 | –
−1.46 | – | −0.96 | – | 0.02 | 9.5 | CCCCn1c(=O)sn(-c2ccc(C)cc2)c1=O [CCG-203767, 2-p-tolyl-4-butyl-1,2,4-thiadiazolidine-3,5-dione] | 123 | –
−3.18 | – | −0.70 | 119 | 0.054 | – | CCCCn1c(=O)sn(C(C)(C)C)c1=O [CCG-203768, 2-t-butyl-4-butyl-1,2,4-thiadiazolidine-3,5-dione] | 91.7 | –
−0.83 | – | −0.53 | 122 | 0.03 | – | CCCCn1sc(=O)n(CCCC)c1=O [CCG-203770, 2,4-dibutyl-1,2,4-thiadiazolidine-3,5-dione] | 188 | –
−1.43 | – | −1.15 | 16.4 | 0.057 | – | O=c1sn(-c2cccc(C(F)(F)F)c2)c(=O)n1Cc1ccccc1 [CCG-203772] | 165 | –
−1.25 | – | −0.87 | – | 0.033 | 10.9 | O=c1sn(-c2cccc(Cl)c2)c(=O)n1Cc1ccccc1 [CCG-203773, 2-(3-chlorophenyl)-4-benzyl-1,2,4-thiadiazolidine-3,5-dione] | 199 | –
−0.88 | – | −1.14 | 16.2 | 0.079 | – | O=c1sn(-c2cccc(C(F)(F)F)c2)c(=O)n1Cc1ccc(F)cc1 [CCG-203775, 2-(3-trifluoromethylphenyl)-4-(4-fluorobenzyl)-1,2,4-thiadiazolidine-3,5-dione] | 170 | –
−1.08 | – | −1.07 | 12.8 | 0.052 | – | O=c1sn(-c2cccc(Cl)c2)c(=O)n1Cc1ccc(F)cc1 [CCG-203776, 2-(3-chlorophenyl)-4-(4-fluorobenzyl)-1,2,4-thiadiazolidine-3,5-dione] | 223 | –
−0.96 | – | −1.00 | 17.5 | 0.017 | – | Cc1ccc(-n2sc(=O)n(Cc3cccc(Cl)c3)c2=O)cc1 [CCG-203777, 2-p-tolyl-4-(3-chlorobenzyl)-1,2,4-thiadiazolidine-3,5-dione] | 179 | –
−1.91 | – | −1.09 | 7.1 | 0.121 | – | Cc1cccc(-n2sc(=O)n(Cc3ccc(F)cc3)c2=O)c1 [CCG-203788, 2-(3-methylphenyl)-4-(4-fluorobenzyl)-1,2,4-thiadiazolidine-3,5-dione] | 134 | –
−1.65 | – | −1.28 | 10.3 | – | 10.3 | CN(C)c1ccc(-n2sc(=O)n(Cc3ccc(F)cc3)c2=O)cc1 [S2, 2-(4-dimethylaminophenyl)-4-(4-fluorobenzyl)-1,2,4-thiadiazolidine-3,5-dione] | 111 | –
−1.79 | – | −0.78 | 17.4 | – | 17.4 | CC(C)(C)c1ccc(-n2sc(=O)n(Cc3ccccc3)c2=O)cc1 [S3, 2-(4-t-butylphenyl)-4-benzyl-1,2,4-thiadiazolidine-3,5-dione] | 123 | –
−1.48 | – | −1.36 | 12.7 | – | 12.7 | O=c1sn(-c2ccc(Cl)cc2)c(=O)n1Cc1ccc(Cl)cc1 [S5, 2-(4-chlorophenyl)-4-(4-chlorobenzyl)-1,2,4-thiadiazolidine-3,5-dione] | 141 | –
−1.73 | – | −0.91 | 40.2 | – | 40.2 | COc1ccc(-n2sc(=O)n(Cc3ccc(Cl)cc3)c2=O)cc1 [S6, 2-(4-methoxyphenyl)-4-(4-chlorobenzyl)-1,2,4-thiadiazolidine-3,5-dione] | 104 | –
−1.23 | – | −0.60 | 337 | – | 337 | Cc1ccc(Cn2sc(=O)n(Cc3ccc(Cl)cc3)c2=O)cc1 [S8, 2-(4-methylbenzyl)-4-(4-chlorobenzyl)-1,2,4-thiadiazolidine-3,5-dione] | 11.4 | –
−1.50 | – | −0.87 | 8.3 | – | 8.3 | Cc1ccc(Cn2c(=O)sn(-c3ccccc3)c2=O)cc1 [S9, 2-phenyl-4-(4-methylbenzyl)-1,2,4-thiadiazolidine-3,5-dione] | 12.2 | –
−1.59 | – | −1.17 | 12.8 | – | 12.8 | Cc1ccc(Cn2c(=O)sn(-c3ccc(Cl)cc3)c2=O)cc1 [S10, 2-(4-chlorophenyl)-4-(4-methylbenzyl)-1,2,4-thiadiazolidine-3,5-dione] | 20 | –
−0.92 | – | −0.51 | 94.7 | – | 94.7 | Cc1ccc(Cn2sc(=O)n(Cc3ccc(C)cc3)c2=O)cc1 [S13, 2,4-bis(4-methylbenzyl)-1,2,4-thiadiazolidine-3,5-dione] | 251 | –
−1.41 | – | −1.47 | 9.4 | – | 9.4 | O=c1sn(-c2ccccc2)c(=O)n1Cc1cccc(Cl)c1 [S14, 2-phenyl-4-(3-chlorobenzyl)-1,2,4-thiadiazolidine-3,5-dione] | 57.7 | –
−1.52 | – | −0.95 | 10.1 | – | 10.1 | Cc1cccc(-n2sc(=O)n(Cc3cccc(Cl)c3)c2=O)c1 [S16, 2-m-tolyl-4-(3-chlorobenzyl)-1,2,4-thiadiazolidine-3,5-dione] | 142 | –
−1.55 | – | −1.66 | 21.1 | – | 21.1 | O=c1sn(-c2cccc(Cl)c2)c(=O)n1Cc1cccc(Cl)c1 [S17, 2-(3-chlorophenyl)-4-(3-chlorobenzyl)-1,2,4-thiadiazolidine-3,5-dione] | 67.8 | –
−1.65 | – | −1.17 | 8.4 | – | 8.4 | Cc1cccc(Cn2c(=O)sn(-c3ccccc3)c2=O)c1 [S19, 2-phenyl-4-(3-methylbenzyl)-1,2,4-thiadiazolidine-3,5-dione] | 243 | –
−1.79 | – | −0.82 | 10.4 | – | 10.4 | Cc1cccc(Cn2c(=O)sn(-c3cccc(C)c3)c2=O)c1 [S21, 2-m-tolyl-4-(3-methylbenzyl)-1,2,4-thiadiazolidine-3,5-dione] | 63.3 | –
